From US8722849B2, “Polypeptides” (Novo Nordisk A/S, priority 2011, dated 2014)
In brackets after ≈: the same amount, converted by molar mass. Read-outs that look alike come from different tables or passages of the source. Starred links: 1 amine or outer side, 2 acyl side, 3 side chain; linkers in the order of their positions; H or OH if unused. Positions of bridges follow the written chain, without caps; N, C: chain ends. Residues, ends and D or L forms follow the SMILES beside them. *: point of attachment. C20 diacid = O=C(O)CCCCCCCCCCCCCCCCCCC(=O)*; γGlu = O=C(O)[C@H](CCC(=O)[*:2])N[*:1]

Legend:
[1] = target: T1, human calcitonin receptor (Homo sapiens, UniProt P30988); assay: Assay (II)a functional CRE-luciferase assay, human calcitonin receptor; format: cell-based; conditions: Table 7; human calcitonin (CTa) receptor
T1 construct: expressed in transfected cells; host or cells: BHK570
T1 sequence (P30988 25-474): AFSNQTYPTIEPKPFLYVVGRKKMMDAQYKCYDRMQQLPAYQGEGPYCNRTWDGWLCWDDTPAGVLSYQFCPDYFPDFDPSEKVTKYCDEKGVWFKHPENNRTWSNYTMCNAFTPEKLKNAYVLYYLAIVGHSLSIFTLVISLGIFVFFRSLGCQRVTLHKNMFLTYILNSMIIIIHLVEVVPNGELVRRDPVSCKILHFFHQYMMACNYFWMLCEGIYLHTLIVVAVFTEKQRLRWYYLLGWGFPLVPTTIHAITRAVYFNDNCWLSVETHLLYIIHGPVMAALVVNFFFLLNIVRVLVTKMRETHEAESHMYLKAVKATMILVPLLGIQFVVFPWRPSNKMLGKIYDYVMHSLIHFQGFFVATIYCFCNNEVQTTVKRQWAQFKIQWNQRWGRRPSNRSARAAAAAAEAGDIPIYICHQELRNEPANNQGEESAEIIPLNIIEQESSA

[2] = Assay (III) ThT fibrillation assay for physical stability; format: physicochemical; conditions: ThT fibrillation assay
How it was run: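 Freshly prepared formulations, pH-adjusted, with 1 μM ThT; four or eight replicates incubated at 37 °C under 960 rpm orbital shaking. Fluorescence (ex 444/em 485 nm) read every 20 min; […]. Peptide concentration measured by RP-HPLC before and after the run.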

[3] = target: T2, human amylin receptor (amylin 3(a) receptor: human calcitonin receptor + RAMP-3) (Homo sapiens, UniProt O60896+P30988); assay: Assay (II)a functional CRE-luciferase assay, human amylin receptor; format: cell-based; conditions: Table 2; BHK amylin 3(a)-receptor/CRE-luc cells
T2 construct: expressed in transfected cells; host or cells: BHK570
T2 sequence (P30988 25-474): T1 sequence (P30988 25-474)
T2 sequence (O60896 24-148 partner): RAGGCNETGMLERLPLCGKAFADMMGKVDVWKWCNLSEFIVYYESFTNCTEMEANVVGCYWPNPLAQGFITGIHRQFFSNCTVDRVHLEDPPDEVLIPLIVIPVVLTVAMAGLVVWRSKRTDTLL

[4] = Assay (IV) determination of solubility; format: physicochemical
How it was run: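 Stock ~500 nmol/ml in water; 1:1 with 100 mM buffer, pH 3.0–8.0 (glycylglycine ≤5.0, bistrispropane ≥6.0); 18 h RT; spin; HPLC quantitation of soluble polypeptide.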

[5] = bistrispropane buffer, pH 6, pH 6.0, read-out: Solubility pH 6.0
[6] = bistrispropane buffer, pH 6.5, pH 6.5, read-out: Solubility pH 6.5
[7] = bistrispropane buffer, pH 7, pH 7.0, 18 hours at room temperature, Table 3, read-out: Solubility pH 7.0
[8] = bistrispropane buffer, pH 7, pH 7.0, read-out: Solubility pH 7.0
[9] = bistrispropane buffer, pH 7.5, pH 7.5, read-out: Solubility pH 7.5
[10] = bistrispropane buffer, pH 8, pH 8.0, read-out: Solubility pH 8.0
[11] = glycylglycine buffer, pH 3, pH 3.0, read-out: Solubility pH 3.0
[12] = glycylglycine buffer, pH 4, pH 4.0, 18 hours at room temperature, Table 2, read-out: Solubility pH 4.0
[13] = glycylglycine buffer, pH 4, pH 4.0, read-out: Solubility pH 4.0
[14] = glycylglycine buffer, pH 5, pH 5.0, read-out: Solubility pH 5.0

SMILES | EC50 [1] | ThT pH 4.0 lag time (h) [2] | EC50 [3] | solubility at 18 h [4, 5] | solubility at 18 h [4, 6] | solubility at 18 h [4, 7] | solubility at 18 h [4, 8] | solubility at 18 h [4, 9] | solubility at 18 h [4, 10] | solubility at 18 h [4, 11] | solubility at 18 h [4, 12] | solubility at 18 h [4, 13] | solubility at 18 h [4, 14]
CC[C@H](C)[C@H](NC(=O)[C@@H]1CCCN1C(=O)CNC(=O)[C@H](Cc1ccccc1)NC(=O)[C@H](CC(N)=O)NC(=O)[C@H](CCC(N)=O)NC(=O)[C@H](CO)NC(=O)[C@H](CO)NC(=O)[C@H](Cc1c[nH]cn1)NC(=O)[C@@H](NC(=O)[C@H](CC(C)C)NC(=O)[C@H](Cc1ccccc1)NC(=O)[C@H](CCC(=O)O)NC(=O)[C@H](C)NC(=O)[C@H](CC(C)C)NC(=O)[C@H](CCCNC(=N)N)NC(=O)[C@H](CCC(N)=O)NC(=O)[C@@H](NC(=O)[C@H](C)NC(=O)[C@@H]1CSSC[C@H](NC(=O)[C@H](CCCCN)NC(=O)CC[C@H](NC(=O)CCCCCCCCCCCCCCCCCCC(=O)O)C(=O)O)C(=O)N[C@@H](CC(N)=O)C(=O)N[C@@H]([C@@H](C)O)C(=O)N[C@@H](C)C(=O)N[C@@H]([C@@H](C)O)C(=O)N1)[C@@H](C)O)C(C)C)C(=O)N[C@@H](CC(C)C)C(=O)N1CCC[C@H]1C(=O)N1CCC[C@H]1C(=O)N[C@H](C(=O)N[C@@H](CC(N)=O)C(=O)N[C@H](C(=O)NCC(=O)N[C@@H](CO)C(=O)N[C@@H](CCC(N)=O)C(=O)N[C@H](C(=O)N1CCC[C@H]1C(N)=O)[C@@H](C)O)C(C)C)[C@@H](C)O [Example 139, N-alpha-[(S)-4-Carboxy-4-(19-carboxynonadecanoylamino)butyryl]-[Glu14,Gln21,Gln35,Pro37]-pramlintide] ({C20 diacid-γGlu}-KCNTATCATQRLAEFLVHSSQNFGPILPPTNVGSQTP-NH2; disulfide 2-7 (inferred)) | 0.0585 nM | 23.6 h | 0.107 nM | > 200 µM | > 200 µM | > 200 µM | > 200 µM | > 200 µM | > 200 µM | > 200 µM | > 200 µM | > 200 µM | > 200 µM
CC[C@H](C)[C@H](NC(=O)[C@@H]1CCCN1C(=O)CNC(=O)[C@H](Cc1ccccc1)NC(=O)[C@H](CC(N)=O)NC(=O)[C@H](CC(N)=O)NC(=O)[C@H](CO)NC(=O)[C@H](CO)NC(=O)[C@H](CCCNC(=N)N)NC(=O)[C@@H](NC(=O)[C@H](CC(C)C)NC(=O)[C@H](Cc1ccccc1)NC(=O)[C@H](CCC(=O)O)NC(=O)[C@H](C)NC(=O)[C@H](CC(C)C)NC(=O)[C@H](CCCNC(=N)N)NC(=O)[C@H](CCC(N)=O)NC(=O)[C@@H](NC(=O)[C@H](C)NC(=O)[C@@H]1CSSC[C@H](NC(=O)[C@H](Cc2c[nH]cn2)NC(=O)CC[C@H](NC(=O)CCCCCCCCCCCCCCCCCCC(=O)O)C(=O)O)C(=O)N[C@@H](CC(N)=O)C(=O)N[C@@H]([C@@H](C)O)C(=O)N[C@@H](C)C(=O)N[C@@H]([C@@H](C)O)C(=O)N1)[C@@H](C)O)C(C)C)C(=O)N[C@@H](CC(C)C)C(=O)N1CCC[C@H]1C(=O)N1CCC[C@H]1C(=O)N[C@H](C(=O)N[C@@H](CC(N)=O)C(=O)N[C@H](C(=O)NCC(=O)N[C@@H](CO)C(=O)N[C@@H](CC(N)=O)C(=O)N[C@H](C(=O)N1CCC[C@H]1C(N)=O)[C@@H](C)O)C(C)C)[C@@H](C)O [Example 143, N-alpha-[(S)-4-Carboxy-4-(19-carboxynonadecanoylamino)butyryl]-[His1,Glu14,Arg18,Pro37]-pramlintide] ({C20 diacid-γGlu}-HCNTATCATQRLAEFLVRSSNNFGPILPPTNVGSNTP-NH2; disulfide 2-7 (inferred)) | 0.022 nM | 6 h | 0.0415 nM | 75 µM (≈ 329 µg/mL) | 122 µM (≈ 534 µg/mL) | 165 µM (≈ 723 µg/mL) | 165 µM (≈ 723 µg/mL) | > 200 µM | > 200 µM | > 200 µM | > 200 µM | > 200 µM | > 200 µM
